In test [1] the test system is greenhouse red spider mite (Tetranychus urticae). Kind of test: Tetranychus test (OP resistant), sprayed bean plants. It is filed as in vivo. The settings on record: after 7 days; concentration of active compound 0.00016%; bean plants (Phaseolus vulgaris) sprayed, all development stages. As for the experimental part: Tetranychus Test (OP Resistant)
To produce a suitable preparation of active compound, 1 part by weight of active compound is mixed with the stated amount of solvent and the stated amount of emulsifier, and the concentrate is diluted with emulsifier-containing water to the desired concentration.
Bean plants (Phaseolus vulgaris) which are severely infested with all development stages of the greenhouse red spider mite (Tetranychus urticae) are sprayed with a preparation of active compound of the desired concentration.
After the specified periods of time, the destruction in % is determined. 100% means that all the spider mites have been killed; 0% means that none of the spider mites have been killed.

Test [2] has as its system caterpillars of the diamond-back moth (Plutella maculipennis). Description: Plutella test (cabbage leaf dip). It counts as in vivo. The settings on record: after 7 days; concentration of active compound 0.001%; cabbage leaves (Brassica olearacea) dipped. As for the experimental part: Plutella Test [table] To produce a suitable preparation of active compound, 1 part by weight of active compound is mixed with the stated amount of solvent and the stated amount of emulsifier, and the concentrate is diluted with water to the desired concentration. Cabbage leaves (Brassica olearacea) are treated by being dipped into the preparation of active compound of the desired concentration and are infested with caterpillars of the diamond-back moth (Plutella maculipennis) while the leaves are still moist. After the specified periods of time, the destruction in % is determined. 100% means that all the caterpillars have been killed; 0% means that none of the caterpillars have been killed.

Turning to `CC(C)C1(C)NC(=O)C(c2ccc(Cl)cc2Cl)=C1OC(=O)C(C)(C)C` (stereo not drawn) [(D)], in test [1], the destruction rate entry is given as “no destruction”.

On to `CCOC(=O)OC1=C(c2ccc(Cl)cc2Cl)C(=O)NC1(C)C(C)C` (stereo not drawn) [(E)], for which the destruction rate result in test [1] is listed as “no destruction”.

In turn, `CC(=O)OC1=C(c2c(C)cc(C)cc2C)C(=O)NC12CCCCC2` [(B)] showed a destruction rate in test [2] of 10%.

The values above are taken from patent US6939888B2, “1-H-3-arylpirrolidine-2,4-dione derivatives” (Bayer Aktiengesellschaft, priority 1994, dated 2005).
